Assay results from paper PMC9030254, “Target Hopping from Protein Kinases to PXR: Identification of Small-Molecule Protein Kinase Inhibitors as Selective Modulators of Pregnane X Receptor from TüKIC Library” (Cells, 2022).

What was measured:
Assay in all cases: Kinase profiling
Format in all cases: biochemical
CAMK2D = biological target: T1, CAMK2D (Homo sapiens, UniProt Q13557)
T1 construct: purchased ProQinase (Freiburg, Germany)
Experimental: (§1) The analysis was performed by ProQinase (Freiburg, Germany).

EPHA3 = biological target: T2, EPHA3 (Homo sapiens, UniProt P29320)
T2 construct: purchased ProQinase (Freiburg, Germany)
T2 sequence (P29320 21-983): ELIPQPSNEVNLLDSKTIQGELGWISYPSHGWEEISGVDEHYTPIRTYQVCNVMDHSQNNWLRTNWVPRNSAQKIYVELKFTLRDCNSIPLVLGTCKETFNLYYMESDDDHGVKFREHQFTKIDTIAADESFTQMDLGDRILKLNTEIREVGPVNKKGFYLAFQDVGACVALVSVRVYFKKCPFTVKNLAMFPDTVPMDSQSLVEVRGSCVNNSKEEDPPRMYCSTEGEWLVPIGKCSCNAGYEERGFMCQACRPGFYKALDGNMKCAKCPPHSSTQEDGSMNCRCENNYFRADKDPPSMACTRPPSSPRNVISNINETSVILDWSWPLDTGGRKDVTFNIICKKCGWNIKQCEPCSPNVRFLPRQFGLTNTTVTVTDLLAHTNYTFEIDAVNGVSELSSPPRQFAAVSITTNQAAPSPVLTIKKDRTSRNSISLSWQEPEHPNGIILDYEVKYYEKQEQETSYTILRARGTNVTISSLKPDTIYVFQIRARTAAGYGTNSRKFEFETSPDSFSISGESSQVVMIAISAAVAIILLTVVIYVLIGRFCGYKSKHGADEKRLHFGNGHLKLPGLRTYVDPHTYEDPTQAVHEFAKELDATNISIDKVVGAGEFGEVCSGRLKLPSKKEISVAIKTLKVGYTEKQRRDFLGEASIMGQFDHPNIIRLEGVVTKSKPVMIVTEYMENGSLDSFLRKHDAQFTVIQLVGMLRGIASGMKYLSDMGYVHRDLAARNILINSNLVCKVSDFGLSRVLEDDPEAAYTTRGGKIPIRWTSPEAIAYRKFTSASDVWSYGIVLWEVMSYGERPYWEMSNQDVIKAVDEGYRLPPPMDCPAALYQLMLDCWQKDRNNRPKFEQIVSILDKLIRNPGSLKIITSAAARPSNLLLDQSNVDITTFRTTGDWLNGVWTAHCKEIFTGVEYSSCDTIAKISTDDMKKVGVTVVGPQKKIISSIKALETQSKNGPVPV
Experimental: as §1

EPHB4 = biological target: T3, EPHB4 (Homo sapiens, UniProt P54760)
T3 construct: purchased ProQinase (Freiburg, Germany)
T3 sequence (P54760 16-987): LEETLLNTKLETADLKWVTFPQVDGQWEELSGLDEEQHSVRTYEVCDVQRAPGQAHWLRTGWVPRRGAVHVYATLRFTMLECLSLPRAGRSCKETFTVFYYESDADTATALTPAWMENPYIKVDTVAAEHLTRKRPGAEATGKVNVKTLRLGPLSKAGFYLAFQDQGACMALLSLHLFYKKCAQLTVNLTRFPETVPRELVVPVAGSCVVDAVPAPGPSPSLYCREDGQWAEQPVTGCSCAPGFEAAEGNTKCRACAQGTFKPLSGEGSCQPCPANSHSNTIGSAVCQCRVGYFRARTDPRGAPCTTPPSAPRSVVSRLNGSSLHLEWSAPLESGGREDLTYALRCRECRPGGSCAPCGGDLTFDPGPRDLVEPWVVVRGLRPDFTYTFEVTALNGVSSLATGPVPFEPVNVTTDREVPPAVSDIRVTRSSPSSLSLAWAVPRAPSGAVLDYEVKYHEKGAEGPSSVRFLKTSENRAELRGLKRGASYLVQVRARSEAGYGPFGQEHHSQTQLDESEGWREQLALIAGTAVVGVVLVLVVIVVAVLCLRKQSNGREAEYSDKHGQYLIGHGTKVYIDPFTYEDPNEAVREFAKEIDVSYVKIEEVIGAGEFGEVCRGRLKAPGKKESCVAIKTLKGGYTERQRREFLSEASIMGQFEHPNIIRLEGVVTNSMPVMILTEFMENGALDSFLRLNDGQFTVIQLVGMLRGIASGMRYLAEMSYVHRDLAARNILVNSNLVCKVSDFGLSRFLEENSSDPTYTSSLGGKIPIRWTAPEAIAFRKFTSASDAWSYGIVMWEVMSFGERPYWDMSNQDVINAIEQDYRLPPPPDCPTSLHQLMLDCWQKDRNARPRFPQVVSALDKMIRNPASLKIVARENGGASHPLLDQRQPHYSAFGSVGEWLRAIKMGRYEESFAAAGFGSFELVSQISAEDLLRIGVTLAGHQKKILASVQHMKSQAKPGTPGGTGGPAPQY
Experimental: as §1

GRK5 = biological target: T4, GRK5 (Homo sapiens, UniProt P34947)
T4 construct: purchased ProQinase (Freiburg, Germany)
Experimental: as §1

IRAK1 = biological target: T5, IRAK1 (Homo sapiens, UniProt P51617)
T5 construct: purchased ProQinase (Freiburg, Germany)
Experimental: as §1

MAP4K5 = biological target: T6, MAP4K5 (Homo sapiens, UniProt Q9Y4K4)
T6 construct: purchased ProQinase (Freiburg, Germany)
Experimental: as §1

MKNK2 = biological target: T7, MKNK2 (Homo sapiens, UniProt Q9HBH9)
T7 construct: purchased ProQinase (Freiburg, Germany)
Experimental: as §1

VEGFR2 = biological target: T8, VEGFR2 (Homo sapiens, UniProt P35968)
T8 construct: purchased ProQinase (Freiburg, Germany)
Experimental: as §1

p38beta = biological target: T9, p38beta (Homo sapiens, UniProt Q15759); settings: for inhibition at 10 µM: read-out: inhibition of p38β
T9 construct: purchased ProQinase (Freiburg, Germany)
Experimental: as §1

T1 sequence (Q13557 whole entry): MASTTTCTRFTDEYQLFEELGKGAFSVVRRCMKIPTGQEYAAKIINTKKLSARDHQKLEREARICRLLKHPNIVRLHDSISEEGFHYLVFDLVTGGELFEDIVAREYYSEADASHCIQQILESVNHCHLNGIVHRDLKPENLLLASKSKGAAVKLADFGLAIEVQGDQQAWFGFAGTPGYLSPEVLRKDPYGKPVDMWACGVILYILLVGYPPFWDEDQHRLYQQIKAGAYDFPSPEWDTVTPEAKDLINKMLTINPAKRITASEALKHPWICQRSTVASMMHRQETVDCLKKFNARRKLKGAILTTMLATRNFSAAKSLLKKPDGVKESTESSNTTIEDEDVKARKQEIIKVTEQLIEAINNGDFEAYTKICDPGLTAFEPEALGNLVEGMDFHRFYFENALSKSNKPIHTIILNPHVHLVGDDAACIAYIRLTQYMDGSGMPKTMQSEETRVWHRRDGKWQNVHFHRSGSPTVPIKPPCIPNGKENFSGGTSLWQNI
T8 sequence (P35968 20-1356): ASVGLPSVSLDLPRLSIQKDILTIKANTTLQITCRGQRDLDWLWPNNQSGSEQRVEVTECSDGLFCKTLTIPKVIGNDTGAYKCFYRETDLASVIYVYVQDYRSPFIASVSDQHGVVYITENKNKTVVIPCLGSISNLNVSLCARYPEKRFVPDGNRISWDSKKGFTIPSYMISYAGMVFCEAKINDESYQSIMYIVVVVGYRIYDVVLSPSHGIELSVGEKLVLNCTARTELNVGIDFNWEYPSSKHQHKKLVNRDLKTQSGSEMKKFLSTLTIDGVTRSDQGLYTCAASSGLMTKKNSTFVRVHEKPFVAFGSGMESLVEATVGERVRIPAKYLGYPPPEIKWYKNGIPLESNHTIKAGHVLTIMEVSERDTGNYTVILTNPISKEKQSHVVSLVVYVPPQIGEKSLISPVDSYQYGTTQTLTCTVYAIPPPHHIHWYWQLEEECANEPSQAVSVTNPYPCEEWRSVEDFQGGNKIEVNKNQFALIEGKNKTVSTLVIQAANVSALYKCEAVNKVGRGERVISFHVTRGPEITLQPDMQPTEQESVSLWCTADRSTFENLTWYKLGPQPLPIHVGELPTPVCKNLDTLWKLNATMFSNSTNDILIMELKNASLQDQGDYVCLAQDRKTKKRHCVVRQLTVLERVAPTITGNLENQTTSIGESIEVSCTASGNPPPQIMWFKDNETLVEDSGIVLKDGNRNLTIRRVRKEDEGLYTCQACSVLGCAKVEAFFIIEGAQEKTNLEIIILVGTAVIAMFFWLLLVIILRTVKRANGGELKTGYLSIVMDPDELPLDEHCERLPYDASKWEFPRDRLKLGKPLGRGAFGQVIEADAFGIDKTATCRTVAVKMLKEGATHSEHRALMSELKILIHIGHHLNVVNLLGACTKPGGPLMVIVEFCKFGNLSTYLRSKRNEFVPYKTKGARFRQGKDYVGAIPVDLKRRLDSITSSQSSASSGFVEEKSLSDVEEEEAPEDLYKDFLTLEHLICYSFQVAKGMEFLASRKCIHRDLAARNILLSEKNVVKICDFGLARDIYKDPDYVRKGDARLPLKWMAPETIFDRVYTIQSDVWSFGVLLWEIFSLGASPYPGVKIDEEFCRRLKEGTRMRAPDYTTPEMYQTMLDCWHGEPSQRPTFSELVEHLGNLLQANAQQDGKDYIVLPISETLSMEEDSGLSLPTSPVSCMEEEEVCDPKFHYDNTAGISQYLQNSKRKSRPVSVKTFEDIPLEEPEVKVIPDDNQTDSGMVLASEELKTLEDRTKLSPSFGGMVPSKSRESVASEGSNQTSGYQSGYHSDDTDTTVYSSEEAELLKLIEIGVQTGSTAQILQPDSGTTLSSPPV
T7 sequence (Q9HBH9 whole entry): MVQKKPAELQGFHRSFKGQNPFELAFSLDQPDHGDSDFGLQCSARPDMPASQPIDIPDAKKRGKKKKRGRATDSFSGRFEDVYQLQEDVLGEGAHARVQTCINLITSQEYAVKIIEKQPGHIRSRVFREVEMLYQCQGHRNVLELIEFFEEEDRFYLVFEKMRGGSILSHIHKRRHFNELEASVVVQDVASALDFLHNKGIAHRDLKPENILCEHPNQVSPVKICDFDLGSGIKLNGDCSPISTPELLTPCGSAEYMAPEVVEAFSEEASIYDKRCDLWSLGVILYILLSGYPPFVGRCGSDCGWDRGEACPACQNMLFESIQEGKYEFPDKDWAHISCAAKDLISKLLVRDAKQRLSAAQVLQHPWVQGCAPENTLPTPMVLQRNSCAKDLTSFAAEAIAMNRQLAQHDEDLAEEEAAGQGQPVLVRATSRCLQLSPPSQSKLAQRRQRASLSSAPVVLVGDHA
T6 sequence (Q9Y4K4 whole entry): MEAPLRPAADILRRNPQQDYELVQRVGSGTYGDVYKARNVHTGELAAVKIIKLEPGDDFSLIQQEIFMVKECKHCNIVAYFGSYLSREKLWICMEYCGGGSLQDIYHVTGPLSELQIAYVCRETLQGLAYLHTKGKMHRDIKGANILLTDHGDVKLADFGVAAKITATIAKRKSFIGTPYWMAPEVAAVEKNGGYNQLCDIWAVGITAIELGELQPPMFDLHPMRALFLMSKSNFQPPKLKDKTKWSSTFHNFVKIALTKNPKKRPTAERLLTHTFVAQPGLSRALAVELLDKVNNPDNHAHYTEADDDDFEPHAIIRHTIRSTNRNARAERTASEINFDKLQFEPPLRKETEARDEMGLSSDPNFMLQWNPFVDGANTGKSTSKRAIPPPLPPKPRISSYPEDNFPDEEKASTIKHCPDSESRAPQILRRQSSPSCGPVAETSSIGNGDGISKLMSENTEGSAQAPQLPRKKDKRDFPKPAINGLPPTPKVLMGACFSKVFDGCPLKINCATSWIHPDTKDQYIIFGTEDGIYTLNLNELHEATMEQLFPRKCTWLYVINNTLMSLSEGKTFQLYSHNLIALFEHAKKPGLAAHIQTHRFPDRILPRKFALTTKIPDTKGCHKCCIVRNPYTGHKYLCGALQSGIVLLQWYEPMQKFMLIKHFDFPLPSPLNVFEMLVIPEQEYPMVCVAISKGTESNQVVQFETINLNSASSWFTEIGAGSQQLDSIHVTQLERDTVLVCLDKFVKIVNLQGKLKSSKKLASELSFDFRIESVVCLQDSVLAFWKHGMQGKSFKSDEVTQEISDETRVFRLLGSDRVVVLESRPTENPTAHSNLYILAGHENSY
T4 sequence (P34947 whole entry): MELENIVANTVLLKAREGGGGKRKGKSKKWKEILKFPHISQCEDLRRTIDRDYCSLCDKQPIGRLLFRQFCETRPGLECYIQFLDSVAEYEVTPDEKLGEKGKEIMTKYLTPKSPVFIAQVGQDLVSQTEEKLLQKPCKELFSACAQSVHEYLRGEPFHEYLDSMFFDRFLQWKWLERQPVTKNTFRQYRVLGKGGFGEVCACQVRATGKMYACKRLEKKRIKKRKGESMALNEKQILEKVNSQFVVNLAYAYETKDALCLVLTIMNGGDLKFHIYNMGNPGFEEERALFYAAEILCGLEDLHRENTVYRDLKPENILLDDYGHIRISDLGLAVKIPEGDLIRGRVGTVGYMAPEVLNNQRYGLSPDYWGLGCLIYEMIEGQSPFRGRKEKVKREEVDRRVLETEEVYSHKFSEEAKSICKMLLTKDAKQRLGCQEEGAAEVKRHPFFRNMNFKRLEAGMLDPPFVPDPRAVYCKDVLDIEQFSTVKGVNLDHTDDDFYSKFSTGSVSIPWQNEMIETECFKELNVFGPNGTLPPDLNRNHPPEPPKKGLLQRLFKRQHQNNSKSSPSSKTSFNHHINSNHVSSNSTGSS
T9 sequence (Q15759 whole entry): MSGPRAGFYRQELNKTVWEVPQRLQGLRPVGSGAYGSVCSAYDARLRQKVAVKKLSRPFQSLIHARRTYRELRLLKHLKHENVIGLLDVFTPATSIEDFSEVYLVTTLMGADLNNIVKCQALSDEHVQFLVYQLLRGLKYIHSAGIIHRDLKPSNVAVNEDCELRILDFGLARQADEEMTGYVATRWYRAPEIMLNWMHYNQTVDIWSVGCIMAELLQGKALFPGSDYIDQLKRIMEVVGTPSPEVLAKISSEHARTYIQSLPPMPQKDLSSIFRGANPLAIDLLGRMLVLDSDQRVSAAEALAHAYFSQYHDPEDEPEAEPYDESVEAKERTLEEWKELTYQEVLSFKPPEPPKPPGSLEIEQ
T5 sequence (P51617 whole entry): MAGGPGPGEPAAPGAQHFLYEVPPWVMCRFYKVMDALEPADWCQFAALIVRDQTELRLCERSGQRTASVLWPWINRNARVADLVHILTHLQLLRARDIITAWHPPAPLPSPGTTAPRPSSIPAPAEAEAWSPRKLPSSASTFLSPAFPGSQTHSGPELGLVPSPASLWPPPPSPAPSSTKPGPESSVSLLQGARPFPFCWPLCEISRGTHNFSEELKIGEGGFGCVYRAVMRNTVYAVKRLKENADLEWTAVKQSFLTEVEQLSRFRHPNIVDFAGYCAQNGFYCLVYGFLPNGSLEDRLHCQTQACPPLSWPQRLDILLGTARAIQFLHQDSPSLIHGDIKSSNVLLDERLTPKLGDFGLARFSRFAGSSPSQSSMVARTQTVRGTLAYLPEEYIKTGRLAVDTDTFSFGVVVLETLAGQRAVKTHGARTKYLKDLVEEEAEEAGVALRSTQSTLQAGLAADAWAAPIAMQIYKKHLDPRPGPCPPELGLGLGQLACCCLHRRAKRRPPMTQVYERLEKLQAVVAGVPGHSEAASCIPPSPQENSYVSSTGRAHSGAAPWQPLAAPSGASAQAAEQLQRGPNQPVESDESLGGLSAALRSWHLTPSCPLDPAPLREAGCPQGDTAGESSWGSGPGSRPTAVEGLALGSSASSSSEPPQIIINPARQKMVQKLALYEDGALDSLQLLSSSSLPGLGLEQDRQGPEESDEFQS

## O=C(Cc1ccccc1)Nc1ccc(F)c(Nc2ccc3c(c2)CCCCC3=O)c1 [Compound 100]
CAMK2D; 1.0E-05 M
  Residual activity: 90 % of control
CAMK2D; 1.0E-06 M
  Residual activity: 103 % of control
EPHA3; 1.0E-05 M
  Residual activity: 86 % of control
EPHA3; 1.0E-06 M
  Residual activity: 96 % of control
EPHB4; 1.0E-05 M
  Residual activity: 74 % of control
EPHB4; 1.0E-06 M
  Residual activity: 99 % of control
GRK5; 1.0E-05 M
  Residual activity: 106 % of control
GRK5; 1.0E-06 M
  Residual activity: 104 % of control
IRAK1; 1.0E-05 M
  Residual activity: 106 % of control
IRAK1; 1.0E-06 M
  Residual activity: 107 % of control
MAP4K5; 1.0E-05 M
  Residual activity: 94 % of control
MAP4K5; 1.0E-06 M
  Residual activity: 98 % of control
MKNK2; 1.0E-05 M
  Residual activity: 115 % of control
MKNK2; 1.0E-06 M
  Residual activity: 112 % of control
VEGFR2; 1.0E-05 M
  Residual activity: 77 % of control
VEGFR2; 1.0E-06 M
  Residual activity: 98 % of control
p38beta
  inhibition at 10 µM: ≥ 50%
p38beta; 1.0E-05 M
  Residual activity: 50 % of control
p38beta; 1.0E-06 M
  Residual activity: 71 % of control

## O=C(Nc1ccc(F)c(Nc2ccc3c(c2)CCCCC3=O)c1)c1cccc(F)c1 [Compound 109]
CAMK2D; 1.0E-05 M
  Residual activity: 88 % of control
CAMK2D; 1.0E-06 M
  Residual activity: 92 % of control
EPHA3; 1.0E-05 M
  Residual activity: 94 % of control
EPHA3; 1.0E-06 M
  Residual activity: 92 % of control
EPHB4; 1.0E-05 M
  Residual activity: 82 % of control
EPHB4; 1.0E-06 M
  Residual activity: 100 % of control
GRK5; 1.0E-05 M
  Residual activity: 103 % of control
GRK5; 1.0E-06 M
  Residual activity: 102 % of control
IRAK1; 1.0E-05 M
  Residual activity: 104 % of control
IRAK1; 1.0E-06 M
  Residual activity: 100 % of control
MAP4K5; 1.0E-05 M
  Residual activity: 92 % of control
MAP4K5; 1.0E-06 M
  Residual activity: 92 % of control
MKNK2; 1.0E-05 M
  Residual activity: 107 % of control
MKNK2; 1.0E-06 M
  Residual activity: 104 % of control
VEGFR2; 1.0E-05 M
  Residual activity: 79 % of control
VEGFR2; 1.0E-06 M
  Residual activity: 84 % of control
p38beta
  inhibition at 10 µM: ≥ 50%
p38beta; 1.0E-05 M
  Residual activity: 2 % of control
p38beta; 1.0E-06 M
  Residual activity: 3 % of control
